Marks after values point to notes of the source that are not given here. No end group written: not given here.
What was measured:
[1] = system: CGRP-induced increase in laser Doppler facial blood flow; assay: Inhibition of CGRP-induced increase in laser Doppler facial blood flow in non-human primate; assay type: in vivo, common marmoset (Callithrix jacchus)
Description: FIG. 4. […] Data are peak % change from baseline±sem, with each animal serving as its own control.
Saturation/Scatchard Analysis. […] Saturation data were analyzed using a one site binding equation to estimate apparent equilibrium dissociation constant (Kd) and the maximum number of binding sites (Bmax) (Prizm v4.0, Graphpad). […] Functional Antagonism/Schild analysis. Agonist stimulation of CGRP receptor complex leads to cyclic AMP (adenosine 3′5′-cyclic monophosphate) production via Gs-dependent activation of an adenylate cyclase (Juaneda C et al., TiPS, 2000; 21:432-438). Consequently, CGRP receptor antagonists inhibit CGRP-induced cyclic AMP formation in SK-N-MC cells which natively express the CGRP receptor complex (Doods H et al., Br J Pharmacol, 2000; 129(3):420-423). […] A Schild analysis format was used, which allowed investigation of the mechanism of antagonism. […] Various concentrations of CGRP were added and the cells were allowed to incubate 30 min at room temperature. The cells were lysed with lysis reagent and cAMP concentrations were determined by HTRF according to the manufacturer's instructions. A standard curve using known quantities of cAMP was evaluated in parallel to allow conversion of HTRF ratio to nM cAMP. The resulting curves were then evaluated using a Gaddum/Schild equation individually and with global fitting (Prizm v4.0, Graphpad). […] To obtain a global fit the following parameters were shared (top, bottom, logEC50, Hill slope and pA2) and all curves were fit simultaneously. […] Non-Terminal Method for Assessing In Vivo Efficacy of Small Molecule CGRP-Receptor Antagonists in Mammals Overview. […] Non-human primates (e.g., marmosets) are the only animals known to have human-like CGRP receptor pharmacology conferred by the presence of the specific amino acid residue (Trp74) in their RAMP1 sequence which is responsible for the phenotype of the human receptor (Mallee et al. J Biol Chem 2002 277:14294). Since current migraine models primarily use rats (Escott et al. Brain Res 1995 669:93; Williamson et al. Cephalalgia 1997 17:525), or are invasive, terminal procedures in primates (Doods et al. Br J Pharmacol 2000 129:420), a novel non-invasive, survival model in non-human primates for in vivo efficacy assessment of CGRP-receptor antagonists was developed. […] Peptide and small-molecule CGRP-receptor antagonists were used to validate the non-human primate model. […] Animals. Adult male and female common marmosets (Callithrix jacchus) purchased from Harlan and weighing 350-550 g served as subjects. Anesthesia & Surgical Preparation. Animals are anesthetized by isoflurane inhalation in an induction chamber (4-5% rapid induction, maintained with 1-2.5%; Solomon et al., 1999).

[2] = system: i.v. hαCGRP-induced increase in middle meningeal artery diameter and facial blood flow; assay: Validation of facial blood flow as surrogate for intracranial artery dilation in the rat; assay type: in vivo; details: pretreatment, n=5 rats

haCGRP(8-37): peptide antagonist, peptide fragment CGRP(8-37) (VTHRLAGLLSRSGGVVKNNFVPTNVGSKAF; ends and bridges not checked; UniProt P06881 90-119, looked up, fragment) [reference compound]
% Inhibition ([1]; 1 mg/kg i.v., pretreat 0 min, 15 min, hαCGRP 10 μg/kg i.v.): 87.2* %
inhibition of i.v. CGRP-stimulated increases in primate facial blood flow ([1]; pre-treatment): dose-dependently inhibited
inhibition of i.v. hαCGRP-induced increase in facial blood flow [2]: 50%
inhibition of i.v. hαCGRP-induced increase in middle meningeal artery diameter [2]: 50%
